From PubChem BioAssay (NCI) come the findings set out here.

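Assay format: 96-well plates, 48-hour exposure. TGI marks complete inhibition of growth.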

Test systems include EKVX NSCLC; SK-OV-3 ovarian; ACHN renal; COLO 205 colon; TK-10 renal; HOP-62 NSCLC; BT-549 breast; SF-295 CNS; M14 melanoma; HCT-15 colon; SF-268 CNS; MCF7 breast; DU-145 prostate; MALME-3M melanoma; CCRF-CEM leukemia; SR leukemia; A498 renal; MDA-MB-231 breast; HL-60(TB) leukemia.
Holding throughout (assay): DTP human tumour cell line panel, 48 h

In the case of `Cc1ccc(S(=O)(=O)C2=Cc3ccc(C(F)(F)F)cc3C2(O)c2cccc(C(F)(F)F)c2)cc1` (stereo not drawn), the TGI in the assay on EKVX NSCLC was found to be 9.83 µM; with SK-OV-3 ovarian, 28.2 µM; with ACHN renal it was 7.64 µM; with COLO 205 colon, 3.43 µM; in the assay on TK-10 renal, 5.96 µM; in the assay with HOP-62 NSCLC, 18.8 µM. The TGI with BT-549 breast was 5.22 µM; with SF-295 CNS, 6.87 µM; in the assay with M14 melanoma it was 4.83 µM; with HCT-15 colon it was 4.27 µM; in the assay with SF-268 CNS, 8.65 µM; with MCF7 breast, 4.86 µM. Further, the total growth inhibition concentration (TGI) in the assay on DU-145 prostate came out at 10.3 µM; in the assay on MALME-3M melanoma, 3.48 µM; with CCRF-CEM leukemia, 8.17 µM; in the assay on SR leukemia, 8.14 µM; in the assay with A498 renal, 3.83 µM; in the assay with MDA-MB-231 breast, 5.06 µM. In the assay on HL-60(TB) leukemia, this compound registered a TGI of 3.66 µM.

With `CCN(CC)/C(Cl)=C(Cl)\C(=C1\Nc2ccc(OC)cc21)[N+](=O)[O-]`, the concentration for total growth inhibition (TGI) with EKVX NSCLC, with SK-OV-3 ovarian, in the assay on ACHN renal, in the assay with COLO 205 colon, with TK-10 renal and in the assay with HOP-62 NSCLC was above 100 µM each time. The TGI in the assay on BT-549 breast, in the assay on SF-295 CNS, with M14 melanoma, with HCT-15 colon, in the assay on SF-268 CNS and with MCF7 breast was above 100 µM in each case. Further, the TGI in the assay with DU-145 prostate was above 100 µM; with MALME-3M melanoma it was above 100 µM; in the assay with CCRF-CEM leukemia it was 93.6 µM; with SR leukemia it was 65 µM; in the assay on A498 renal it was above 100 µM; in the assay with MDA-MB-231 breast it was above 100 µM. Also, in the assay on HL-60(TB) leukemia, the TGI was above 100 µM.

As to `C/C(=N\Nc1cc(CN2CCCC2)c(-c2ccc(Cl)cc2)nn1)C(=O)O`, the TGI with EKVX NSCLC, in the assay with SK-OV-3 ovarian, with ACHN renal, in the assay on COLO 205 colon, in the assay on TK-10 renal and in the assay on HOP-62 NSCLC was above 100 µM each time. The TGI with BT-549 breast, with SF-295 CNS, in the assay on M14 melanoma, in the assay on HCT-15 colon, in the assay with SF-268 CNS and in the assay with MCF7 breast was above 100 µM throughout. Moreover, the concentration for total growth inhibition (TGI) with DU-145 prostate, in the assay with MALME-3M melanoma, in the assay on CCRF-CEM leukemia, in the assay with SR leukemia, in the assay on A498 renal and with MDA-MB-231 breast was above 100 µM throughout. In the assay with HL-60(TB) leukemia, this compound had a TGI above 100 µM.

As for `NC(CCC(=O)NC(CSC(=O)N(O)c1ccc(Br)cc1)C(=O)NCC(=O)O)C(=O)O` (stereo not drawn), the TGI in the assay on EKVX NSCLC, with SK-OV-3 ovarian, with ACHN renal, in the assay with COLO 205 colon, with TK-10 renal and in the assay with HOP-62 NSCLC was above 100 µM each time. Moreover, the TGI in the assay on BT-549 breast was above 50 µM; in the assay on SF-295 CNS, above 100 µM; in the assay with M14 melanoma, above 100 µM; with HCT-15 colon, above 100 µM; in the assay with SF-268 CNS, above 100 µM; in the assay with MCF7 breast, above 50 µM. Moreover, the TGI in the assay on DU-145 prostate was above 50 µM; in the assay on MALME-3M melanoma, above 100 µM; with CCRF-CEM leukemia, above 100 µM; in the assay with SR leukemia it was above 100 µM; in the assay with A498 renal, above 100 µM; in the assay with MDA-MB-231 breast, above 50 µM. Also, in the assay on HL-60(TB) leukemia, the total growth inhibition concentration (TGI) is above 100 µM.

As to `CC1=NC(=Cc2ccc(O)cc2)C(=O)N1n1c(-c2ccccc2)nc2ccccc2c1=O`, the concentration for total growth inhibition (TGI) in the assay on EKVX NSCLC, in the assay with SK-OV-3 ovarian, with ACHN renal, in the assay with COLO 205 colon, with TK-10 renal and with HOP-62 NSCLC was above 100 µM each time. The TGI in the assay on BT-549 breast, in the assay on SF-295 CNS, with M14 melanoma, in the assay on HCT-15 colon, in the assay with SF-268 CNS and in the assay on MCF7 breast was above 100 µM each time. Moreover, the TGI in the assay with DU-145 prostate, in the assay on MALME-3M melanoma, with CCRF-CEM leukemia, in the assay on SR leukemia, in the assay with A498 renal and in the assay with MDA-MB-231 breast was above 100 µM each time. The compound also showed a total growth inhibition concentration (TGI) in the assay with HL-60(TB) leukemia above 100 µM.

As for `COc1cccc(OC)c1/C=C1\OC(=O)c2cccc(OC)c21`, the TGI in the assay with EKVX NSCLC is above 100 µM; with SK-OV-3 ovarian, above 100 µM; in the assay with ACHN renal, above 100 µM; in the assay with COLO 205 colon, 30.9 µM; in the assay with TK-10 renal, above 100 µM; in the assay with HOP-62 NSCLC, 56 µM. Moreover, the concentration for total growth inhibition (TGI) was above 90.6 µM with BT-549 breast; above 28.2 µM with SF-295 CNS; above 58.9 µM with M14 melanoma; above 100 µM with HCT-15 colon; above 100 µM in the assay on SF-268 CNS; above 100 µM in the assay on MCF7 breast. For the same compound, the concentration for total growth inhibition (TGI) in the assay with DU-145 prostate is above 100 µM; in the assay on MALME-3M melanoma, above 95.5 µM; in the assay on CCRF-CEM leukemia, above 100 µM; with SR leukemia, above 24.3 µM; with A498 renal, 32.3 µM; in the assay on MDA-MB-231 breast it was above 100 µM. The compound further came in with a concentration for total growth inhibition (TGI) with HL-60(TB) leukemia above 19.7 µM.

For the compound `COn1cc(C=O)c2ccccc21`, the TGI with EKVX NSCLC is above 100 µM; in the assay with SK-OV-3 ovarian, above 100 µM; in the assay on ACHN renal, above 100 µM; with COLO 205 colon, above 100 µM; in the assay with TK-10 renal it was above 93 µM; in the assay on HOP-62 NSCLC, above 100 µM. Moreover, the TGI is above 100 µM in the assay with BT-549 breast; above 95.9 µM in the assay on SF-295 CNS; above 100 µM with M14 melanoma; above 100 µM in the assay on HCT-15 colon; above 100 µM in the assay on SF-268 CNS; above 100 µM with MCF7 breast. For the same compound, the TGI in the assay on DU-145 prostate was above 100 µM; with MALME-3M melanoma it was above 100 µM; with CCRF-CEM leukemia, 1.34 µM; with SR leukemia, above 71.4 µM; in the assay on A498 renal, 3.97 µM; with MDA-MB-231 breast it was above 100 µM. This compound gave a TGI with HL-60(TB) leukemia of 1.52 µM.

One may read the TGI as the concentration giving total growth inhibition. Higher therefore signals less potent growth arrest.
